The values below come from patent US5264372A (Amylin Pharmaceuticals, Inc., priority 1991, dated 1993).

The subject of experiment [1] is insulin-stimulated glycogen synthesis in rat soleus muscle. As to the kind of experiment: Rat soleus muscle insulin-antagonism assay (inhibition of insulin-stimulated glycogen synthesis). The experiment is classed as cell-based. The conditions noted are these: for Agonist activity in words: amylin receptors in rat skeletal muscle; for IC50: insulin 1000 μU/ml, read-out: IC50 for inhibition of the stimulation of glycogen synthesis by insulin. The procedure:
The ability of insulin to stimulate glycogen synthesis in rat soleus muscle in vitro was measured as described by Leighton B. and Cooper, G. J. S., Nature 335:632-635 (1988), with the following modifications. Rats were unfed for 4 hours prior to sacrifice; muscles were not stretched on clips; bovine serum albumin (BSA) and HEPES were omitted from the assay medium; and, the insulin concentration used was 1000 μU/ml.

Experiment [2] addresses ^125 I-CGRP binding in skeletal muscle crude membrane preparations. To be noted: Chantry et al.; cited from earlier work.
A short description of experiment [3]: Plasma glucose increment after i.v. peptide in fasted anesthetized rats. The conditions noted are these: doses of 1 and 10 μg i.v.
Experiment [4] concerns the target T1, ^125 I-h CGRP binding site (CGRP receptor) in rat liver membranes (Rattus norvegicus, UniProt Q63118+Q9JJ74).
T1 construct: from tissue; host or cells: rat liver membranes
Put plainly: 125I-h CGRP binding to rat liver membranes (saturation and competition). On the procedure: Membranes were prepared from male Wistar or Sprague-Dawley rats (200-250 grams). Following decapitation, liver, soleus muscle and brain regions were removed to phosphate-buffered saline (PBS), pH 7.4 at 4° C. Tissues were weighed then placed in 5 ml/g tissue of ice-cold 20 mM HEPES buffer, pH 7.4, and homogenized with a Polytron at setting 4 for 10 seconds. An additional 30 ml of cold HEPES was added, and the homogenates centrifuged for 15 minutes at 48,000×g. After discarding the supernatant fluids, membrane pellets were homogenized in 40 ml of fresh HEPES buffer and centrifuged as before. Membranes were washed again by homogenization in buffer and centrifugation.
The final membrane pellet was resuspended in a volume of 20 mM HEPES buffer containing 0.2 mM PMSF added immediately before use from a stock 0.2 M solution in ethanol. A volume of buffer was used sufficient to yield a concentration of about 0 to about 20 mg original tissue/ml.
To 12×75 mm glass or polypropylene tubes were added 150 μl of HBBM buffer (20 mM HEPES buffer, pH 7.4, containing 1 mg/ml bacitracin, 1 mg/ml protease-free BSA Fraction V, 4 mM MgCl2) to which 0.2 mM PMSF was added just prior to use.
To this solution, 50 μl of unlabeled peptide diluted in HBBM buffer at concentrations of […] to 10^-6 M, were added. Control tubes contained HBBM alone. […] Incubations were begun by the addition of 250 μl of buffer containing membranes from 4 mg original weight of tissue, and continued for 60 minutes at room temperature (24° C.).
Suspensions were then filtered through GF/B glass fiber filters (previously soaked for 5 hours in 0.3% PEI) in a Brandel M-24 harvester. Filters were washed immediately before use with 5 ml of cold PBS, and immediately after filtration with 15 ml cold PBS. Filters were then counted in a gamma-counter.
The concentration of free ligand was derived by subtracting […] from total ligand added.
Scatchard and competition curve analysis was performed as described above.

Experiment [5] addresses T2, CGRP binding sites (receptors) on liver membrane (Rattus norvegicus, UniProt Q63118+Q9JJ74).
T2 construct: host or cells: liver membranes; crude skeletal muscle membranes
The conditions noted are these: Morishita et al.; read-out: Affinity; cited from earlier work.

Experiment [6] has as its target T3, calcitonin sites in brain and renal membranes (Homo sapiens, UniProt P30988).
T3 construct: host or cells: brain and renal membranes
T3 sequence (P30988 25-474): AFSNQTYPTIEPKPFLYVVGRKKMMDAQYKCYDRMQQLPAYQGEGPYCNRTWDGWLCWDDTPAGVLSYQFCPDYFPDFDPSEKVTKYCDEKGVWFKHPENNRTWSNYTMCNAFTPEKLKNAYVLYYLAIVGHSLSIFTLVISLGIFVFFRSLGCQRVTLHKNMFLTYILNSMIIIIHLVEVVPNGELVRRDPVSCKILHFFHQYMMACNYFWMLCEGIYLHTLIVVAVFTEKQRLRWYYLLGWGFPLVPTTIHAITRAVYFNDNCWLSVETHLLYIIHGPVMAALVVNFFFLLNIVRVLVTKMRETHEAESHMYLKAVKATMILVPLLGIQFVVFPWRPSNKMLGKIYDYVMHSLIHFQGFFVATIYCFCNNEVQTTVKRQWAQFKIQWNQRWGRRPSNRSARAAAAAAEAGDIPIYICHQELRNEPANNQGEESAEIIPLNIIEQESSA
To be noted: cited from earlier work.

The subject of another experiment is rat liver membranes. Put plainly: 125I-r amylin binding to rat liver membranes. The conditions noted are these: 15 pM tracer; 1 μM h CGRP or 1 μM r amylin as displacing peptide. From the text:
(§1) Control tubes contained HBBM alone.
(§2) Filters were then counted in a gamma-counter.

Experiment [7] deals with rat soleus muscle membranes. Put plainly: Direct binding of labeled r amylin to rat soleus muscle membranes. The conditions noted are these: by 1 μM unlabeled r amylin.
From the text: as §1, §2

Experiment [8] deals with ^125 I-CGRP binding sites in membranes from rat cerebellum (Rattus norvegicus, UniProt Q63118+Q9JJ74). On the procedure:
Binding assays were carried out as described in Example II.
Cerebellum membranes were also tested, as this area contains high densities of CGRP receptors but low to absent amounts of the variant CGRP receptor subtypes present in nucleus accumbens (Sexton et al., 1988).

The target of experiment [9] is ^125 I-h CGRP binding sites in nucleus accumbens and surrounding regions. As to the kind of experiment: Competition for 125I-h CGRP binding to nucleus accumbens area (basal forebrain) membranes. More on the design: species or system rat. From the text:
From the ventral surface of rat brains, cuts were made rostral to the hypothalamus bounded laterally by the olfactory tracts and extending at a 45 angle medially from these tracts. This tissue, containing the nucleus accumbens and surrounding regions, was collected and weighed, and membranes prepared as described in Example I. The region from which tissue was collected as described above is here termed the basal forebrain, and includes the nucleus accumbens and surrounding regions.

In experiment [10] the test system is CGRP binding sites in cerebral cortex. The conditions noted are these: human and rat cerebral cortex; cited from earlier work.

T1 sequence (Q63118 24-464): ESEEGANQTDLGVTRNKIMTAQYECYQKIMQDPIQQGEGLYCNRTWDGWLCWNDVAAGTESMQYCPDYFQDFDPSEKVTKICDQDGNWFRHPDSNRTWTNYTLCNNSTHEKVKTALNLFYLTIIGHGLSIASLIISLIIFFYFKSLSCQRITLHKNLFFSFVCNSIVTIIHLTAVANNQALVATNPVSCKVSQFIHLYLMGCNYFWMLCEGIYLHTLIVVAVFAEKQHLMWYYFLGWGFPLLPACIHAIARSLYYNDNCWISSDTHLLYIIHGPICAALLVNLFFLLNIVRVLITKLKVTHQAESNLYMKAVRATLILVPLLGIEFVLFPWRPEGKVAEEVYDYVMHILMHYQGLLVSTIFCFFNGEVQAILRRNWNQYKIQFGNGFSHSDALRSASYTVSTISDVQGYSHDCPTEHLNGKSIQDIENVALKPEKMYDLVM
T1 sequence (Q9JJ74 27-148): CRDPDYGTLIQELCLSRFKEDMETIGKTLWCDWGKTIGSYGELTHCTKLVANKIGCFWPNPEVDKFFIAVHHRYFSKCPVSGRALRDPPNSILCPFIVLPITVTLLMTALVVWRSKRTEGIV
T2 sequence (Q63118 24-464): as the sequence (Q63118 24-464) above
T2 sequence (Q9JJ74 27-148): as the sequence (Q9JJ74 27-148) above
Chain of ^125 I-CGRP binding sites in membranes from rat cerebellum (Q63118 24-464): as the sequence (Q63118 24-464) above
Chain of ^125 I-CGRP binding sites in membranes from rat cerebellum (Q9JJ74 27-148): as the sequence (Q9JJ74 27-148) above

eel calcitonin: in experiment [1], the “Agonist activity in words” value is listed as “potent agonists at amylin receptors” and the IC50 (usually the concentration that gives 50% inhibition) was determined as 0.4 nM.

On to `CC(C)C[C@H](NC(=O)[C@H](CC(N)=O)NC(=O)[C@H](CC(N)=O)NC(=O)[C@H](CO)NC(=O)[C@H](CO)NC(=O)[C@H](CCCNC(=N)N)NC(=O)[C@@H](NC(=O)[C@H](CC(C)C)NC(=O)[C@H](Cc1ccccc1)NC(=O)[C@H](CC(N)=O)NC(=O)[C@H](C)NC(=O)[C@H](CC(C)C)NC(=O)[C@H](CCCNC(=N)N)NC(=O)[C@H](CCC(N)=O)NC(=O)[C@@H](NC(=O)[C@H](C)NC(=O)[C@@H]1CSSC[C@H](NC(=O)[C@@H](N)CCCCN)C(=O)N[C@@H](CC(N)=O)C(=O)N[C@@H]([C@@H](C)O)C(=O)N[C@@H](C)C(=O)N[C@@H]([C@@H](C)O)C(=O)N1)[C@@H](C)O)C(C)C)C(=O)NCC(=O)N1CCC[C@H]1C(=O)N[C@H](C(=O)N[C@@H](CC(C)C)C(=O)N1CCC[C@H]1C(=O)N1CCC[C@H]1C(=O)N[C@H](C(=O)N[C@@H](CC(N)=O)C(=O)N[C@H](C(=O)NCC(=O)N[C@@H](CO)C(=O)N[C@@H](CC(N)=O)C(=O)N[C@H](C(=O)N[C@@H](Cc1ccc(O)cc1)C(N)=O)[C@@H](C)O)C(C)C)[C@@H](C)O)C(C)C` [amylin], for which, in experiment [2], the IC50 is 10 nM. The “Hyperglycemic effect compared with CGRP” value in experiment [3] is “more effective hyperglycemic agent”.

For the compound salmon calcitonin, in experiment [1], the “Agonist activity in words” value is reported as “potent agonists at amylin receptors” and the IC50 was determined as 0.38 nM.

In the case of `CC(C)C[C@H](NC(=O)CNC(=O)[C@H](C)NC(=O)[C@H](CC(C)C)NC(=O)[C@H](CCCNC(=N)N)NC(=O)[C@H](Cc1cnc(I)[nH]1)NC(=O)[C@@H](NC(=O)[C@@H](NC(=O)[C@@H]1CSSC[C@H](NC(=O)[C@H](C)N)C(=O)N[C@@H](CC(=O)O)C(=O)N[C@@H]([C@@H](C)O)C(=O)N[C@@H](C)C(=O)N[C@@H]([C@@H](C)O)C(=O)N1)C(C)C)[C@@H](C)O)C(=O)N[C@@H](CC(C)C)C(=O)N[C@@H](CO)C(=O)N[C@@H](CCCNC(=N)N)C(=O)N[C@@H](CO)C(=O)NCC(=O)NCC(=O)N[C@H](C(=O)N[C@H](C(=O)N[C@@H](CCCCN)C(=O)N[C@@H](CC(N)=O)C(=O)N[C@@H](CC(N)=O)C(=O)N[C@@H](Cc1ccccc1)C(=O)N[C@H](C(=O)N1CCC[C@H]1C(=O)N[C@H](C(=O)N[C@@H](CC(N)=O)C(=O)N[C@H](C(=O)NCC(=O)N[C@@H](CO)C(=O)N[C@@H](CCCCN)C(=O)N[C@@H](C)C(=O)N[C@@H](Cc1ccccc1)C(N)=O)C(C)C)[C@@H](C)O)C(C)C)C(C)C)C(C)C` [^125 I-h CGRP], the “Increase of binding to liver membranes in the presence of MgCl2” value in experiment [4] (2 mM MgCl2) is “about 2.8 fold”. For the same compound, in [4] (Scatchard analysis, rat liver membranes), the Bmax came to 49.4 fmol/mg protein.

Consider CGRP, for which, in [4] (liver membranes), the “Potency relative to h CGRP8-37” value was 4 times and the “Potency relative to r amylin” value is listed as “about 200 fold”. Besides, the Ki in experiment [5] is roughly 9 pM. The IC50 in experiment [2] is 0.3 nM. Moreover, the “Fold less potent in competing for calcitonin sites” value in experiment [6] was 500-1000 fold.

For “^125 I-r amylin: rat amylin Bolton-Hunter labeled with 125I at the N-terminal lysine, from Amersham”, the “Specific binding to rat liver membranes” value with rat liver membranes is given as “No specific binding”. Also, in experiment [7], the “Proportion of total binding displaceable” value is 15%.

For the compound `CC(C)C[C@H](NC(=O)[C@H](CC(N)=O)NC(=O)[C@H](CC(N)=O)NC(=O)[C@H](CO)NC(=O)[C@H](CO)NC(=O)[C@H](CCCNC(=N)N)NC(=O)[C@@H](NC(=O)[C@H](CC(C)C)NC(=O)[C@H](Cc1ccccc1)NC(=O)[C@H](CC(N)=O)NC(=O)[C@H](C)NC(=O)[C@H](CC(C)C)NC(=O)[C@H](CCCNC(=N)N)NC(=O)[C@H](CCC(N)=O)NC(=O)[C@@H](NC(=O)[C@H](C)NC(=O)[C@@H]1CSSC[C@H](NC(=O)[C@@H](N)CCCCN)C(=O)N[C@@H](CC(N)=O)C(=O)N[C@@H]([C@@H](C)O)C(=O)N[C@@H](C)C(=O)N[C@@H]([C@@H](C)O)C(=O)N1)[C@@H](C)O)C(C)C)C(=O)NCC(=O)N1CCC[C@H]1C(=O)N[C@H](C(=O)N[C@@H](CC(C)C)C(=O)N1CCC[C@H]1C(=O)N1CCC[C@H]1C(=O)N[C@H](C(=O)N[C@@H](CC(N)=O)C(=O)N[C@H](C(=O)NCC(=O)N[C@@H](CO)C(=O)N[C@@H](CC(N)=O)C(=O)N[C@H](C(=O)N[C@@H](Cc1ccc(O)cc1)C(N)=O)[C@@H](C)O)C(C)C)[C@@H](C)O)C(C)C` [r amylin, rat amylin], the “Hill Slope” value in experiment [4] (competition against ^125 I-h CGRP, rat liver membranes) is listed as -0.67; in [8] it was -0.897. For the same compound, the IC50 was found to be 5.89 nM in experiment [9] (Nucleus Accumbens Area, ^125 I-h CGRP tracer, r amylin 2 site fit); 0.026 nM in experiment [9] (high affinity site of biphasic inhibition); 8.3 ± 1.9 nM in [1].

With calcitonin, the “Fold less potent than rat or human CGRP” value in experiment [10] is reported as 500-1000 fold.
